As usually defined, the EC50 is the concentration needed to bring the measured effect to its halfway point. As usually defined, the IC50 is the concentration that gives 50% inhibition. As a reminder, the AC50 is the concentration giving half of the maximal activity seen. A word on the CC50: it is the concentration that lowers cell viability or growth by half.

The source made the active and inactive calls.

The target of experiment [1] is Lysosomal acid glucosylceramidase (Homo sapiens, UniProt P04062). In words: Dose response cell-based high throughput screening assay to identify enhancers of beta-glucosidase activity. [Related pubchem assays: 784 ]. Type of experiment: functional.
In experiment [2] the target is Photoreceptor-specific nuclear receptor (Homo sapiens, UniProt Q9Y5X4). Type of experiment: functional.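 Also: potency for compounds that break the NR2E3 corepressor complex and count as activators.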
The target in experiment [3] is Peroxisome proliferator-activated receptor gamma/Nuclear receptor corepressor 2 (Homo sapiens, UniProt P37231+Q9Y618). Format: functional.
Experiment [4] can be described thus: Luminescence Cell-Based Dose Retest to Confirm Inhibitors of Cancer Stem Cells. [Related pubchem assays (depositor defined):AID2717, AID2721]. Type of experiment: functional. As to conditions: Homo sapiens.
Experiment [5] concerns the target Alkaline phosphatase, placental type (Homo sapiens, UniProt P05187). In words: PLAP enzyme inhibitors, confirmation, biochemical, luminescence (AID 1512). Format: functional.
The next experiment deals with Procathepsin L (Homo sapiens, UniProt P07711).
A further experiment has as its target Aspartyl aminopeptidase (Plasmodium falciparum 3D7, UniProt Q8I2J3).
The nature of experiment [6]: HEp-2 cell cytotoxicity, dose response, cytotoxicity control for RSV inhibitor project, HTS (AID 2410). Format: functional. As to conditions: human respiratory syncytial virus.
The target of experiment [7] is Peroxisome proliferator-activated receptor gamma/Nuclear receptor coactivator 3 (Homo sapiens, UniProt P37231). Format: functional.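 Also: agonist potency for raising coactivator recruitment to the receptor.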
Experiment [8] can be described thus: inhibitors of intracellular T. cruzi replication, confirmation, NIH3T3 host cells, beta-gal luminescence (AID 2044).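 Also: intracellular parasites grown in NIH/3T3 mouse fibroblasts as host cells; luminescent beta-galactosidase reporter signal from transgenic T. cruzi replicating inside host cells; inhibitors lower the luminescence signal.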 Format: functional, cell-based.
Another experiment relates to Streptococcus. In words: Group A Streptococcus viability loss, dose response, counter-screen for streptokinase expression inhibitor project, luminescence, BacTiterGlo (AID 1915).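 Also: potency for reduction of bacterial viability or growth.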 Type of experiment: functional, organism-based. A general note: Counterscreens check selectivity or assay interference.
Experiment [9] deals with Voltage-dependent T-type calcium channel subunit alpha-1H (Homo sapiens, UniProt O95180). Type of experiment: functional.
Experiment [10] addresses Peroxisome proliferator-activated receptor gamma/Nuclear receptor coactivator 1 (Homo sapiens, UniProt P37231). Format: functional.
Experiment [11] addresses Peroxisome proliferator-activated receptor gamma/Nuclear receptor coactivator 2 (Homo sapiens, UniProt P37231). Format: functional.
For experiment [12], the target named is G-protein coupled receptor 35 (Homo sapiens, UniProt Q9HC97). In words: GPR35 antagonists blocking zaprinast-driven arrestin recruitment, primary screen, imaging, U2OS, beta-arrestin-GFP, zaprinast agonist (AID 2058).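 Also: antagonist potency meaning inhibition of agonist-induced arrestin redistribution.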 Format: functional. (Recruitment of arrestin is a read-out of receptor activation apart from second messengers.)
A further experiment addresses T1, Streptokinase A (Streptococcus pyogenes serotype M1, UniProt P10520).
T1 sequence (P10520 whole entry): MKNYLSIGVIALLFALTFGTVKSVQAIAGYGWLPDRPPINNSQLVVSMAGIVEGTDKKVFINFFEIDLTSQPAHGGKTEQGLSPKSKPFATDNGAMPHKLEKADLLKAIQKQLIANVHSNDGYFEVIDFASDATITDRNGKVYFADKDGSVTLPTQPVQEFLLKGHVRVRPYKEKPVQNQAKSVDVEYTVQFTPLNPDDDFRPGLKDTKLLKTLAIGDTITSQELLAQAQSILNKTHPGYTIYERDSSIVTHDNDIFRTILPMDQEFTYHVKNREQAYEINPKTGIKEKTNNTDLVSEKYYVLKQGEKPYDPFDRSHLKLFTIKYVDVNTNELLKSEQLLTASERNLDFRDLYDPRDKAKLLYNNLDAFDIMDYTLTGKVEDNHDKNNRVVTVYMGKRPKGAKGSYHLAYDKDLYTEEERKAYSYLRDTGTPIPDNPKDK
In words: S. pyogenes streptokinase expression inhibitors, potency, dose response, plasminogen activation absorbance, OD405 (AID 1914).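 Also: secreted streptokinase activity via plasminogen activation per viability signal from cell pellet.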 Format: functional, Streptococcus pyogenes M1 GAS.

Experiment [13] can be described thus: cytotoxicity toward NIH3T3 fibroblasts, dose response, counter-screen, cell-based, ATP luminescence, mouse fibroblasts (AID 2010).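 Also: cells exposed to compound for about 90 hours before reading.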 Type of experiment: functional.
Experiment [14] deals with Streptococcus sp. 'group A'. In words: growth inhibition of control SK(-) GAS strain, dose response, counter-screen for streptokinase expression inhibitor project, luminescence, kanamycin, BacTiterGlo, confirmation (AID 1900). Type of experiment: functional, organism-based.
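For AC50 in this document: cells exposed to compound for roughly 70 hours or longer before luminescence read.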

Procathepsin L, sequence (P07711 whole entry): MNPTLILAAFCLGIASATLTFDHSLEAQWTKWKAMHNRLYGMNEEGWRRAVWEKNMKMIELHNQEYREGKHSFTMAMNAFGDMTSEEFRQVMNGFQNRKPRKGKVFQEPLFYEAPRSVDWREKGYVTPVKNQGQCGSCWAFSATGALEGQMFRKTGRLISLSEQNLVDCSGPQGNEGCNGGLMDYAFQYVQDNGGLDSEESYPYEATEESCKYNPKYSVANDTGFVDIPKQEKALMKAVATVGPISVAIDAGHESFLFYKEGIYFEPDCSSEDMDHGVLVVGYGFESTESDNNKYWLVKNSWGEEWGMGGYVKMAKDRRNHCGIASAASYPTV
G-protein coupled receptor 35, sequence (Q9HC97 whole entry): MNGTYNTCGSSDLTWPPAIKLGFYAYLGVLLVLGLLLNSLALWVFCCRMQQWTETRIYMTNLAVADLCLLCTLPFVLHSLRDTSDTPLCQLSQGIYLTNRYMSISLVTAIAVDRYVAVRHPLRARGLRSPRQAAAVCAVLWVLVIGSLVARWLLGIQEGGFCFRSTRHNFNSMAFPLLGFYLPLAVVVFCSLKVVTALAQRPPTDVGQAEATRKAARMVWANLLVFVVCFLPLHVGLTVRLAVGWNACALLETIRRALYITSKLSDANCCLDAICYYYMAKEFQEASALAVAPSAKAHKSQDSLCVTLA
Voltage-dependent T-type calcium channel subunit alpha-1H, sequence (O95180 whole entry): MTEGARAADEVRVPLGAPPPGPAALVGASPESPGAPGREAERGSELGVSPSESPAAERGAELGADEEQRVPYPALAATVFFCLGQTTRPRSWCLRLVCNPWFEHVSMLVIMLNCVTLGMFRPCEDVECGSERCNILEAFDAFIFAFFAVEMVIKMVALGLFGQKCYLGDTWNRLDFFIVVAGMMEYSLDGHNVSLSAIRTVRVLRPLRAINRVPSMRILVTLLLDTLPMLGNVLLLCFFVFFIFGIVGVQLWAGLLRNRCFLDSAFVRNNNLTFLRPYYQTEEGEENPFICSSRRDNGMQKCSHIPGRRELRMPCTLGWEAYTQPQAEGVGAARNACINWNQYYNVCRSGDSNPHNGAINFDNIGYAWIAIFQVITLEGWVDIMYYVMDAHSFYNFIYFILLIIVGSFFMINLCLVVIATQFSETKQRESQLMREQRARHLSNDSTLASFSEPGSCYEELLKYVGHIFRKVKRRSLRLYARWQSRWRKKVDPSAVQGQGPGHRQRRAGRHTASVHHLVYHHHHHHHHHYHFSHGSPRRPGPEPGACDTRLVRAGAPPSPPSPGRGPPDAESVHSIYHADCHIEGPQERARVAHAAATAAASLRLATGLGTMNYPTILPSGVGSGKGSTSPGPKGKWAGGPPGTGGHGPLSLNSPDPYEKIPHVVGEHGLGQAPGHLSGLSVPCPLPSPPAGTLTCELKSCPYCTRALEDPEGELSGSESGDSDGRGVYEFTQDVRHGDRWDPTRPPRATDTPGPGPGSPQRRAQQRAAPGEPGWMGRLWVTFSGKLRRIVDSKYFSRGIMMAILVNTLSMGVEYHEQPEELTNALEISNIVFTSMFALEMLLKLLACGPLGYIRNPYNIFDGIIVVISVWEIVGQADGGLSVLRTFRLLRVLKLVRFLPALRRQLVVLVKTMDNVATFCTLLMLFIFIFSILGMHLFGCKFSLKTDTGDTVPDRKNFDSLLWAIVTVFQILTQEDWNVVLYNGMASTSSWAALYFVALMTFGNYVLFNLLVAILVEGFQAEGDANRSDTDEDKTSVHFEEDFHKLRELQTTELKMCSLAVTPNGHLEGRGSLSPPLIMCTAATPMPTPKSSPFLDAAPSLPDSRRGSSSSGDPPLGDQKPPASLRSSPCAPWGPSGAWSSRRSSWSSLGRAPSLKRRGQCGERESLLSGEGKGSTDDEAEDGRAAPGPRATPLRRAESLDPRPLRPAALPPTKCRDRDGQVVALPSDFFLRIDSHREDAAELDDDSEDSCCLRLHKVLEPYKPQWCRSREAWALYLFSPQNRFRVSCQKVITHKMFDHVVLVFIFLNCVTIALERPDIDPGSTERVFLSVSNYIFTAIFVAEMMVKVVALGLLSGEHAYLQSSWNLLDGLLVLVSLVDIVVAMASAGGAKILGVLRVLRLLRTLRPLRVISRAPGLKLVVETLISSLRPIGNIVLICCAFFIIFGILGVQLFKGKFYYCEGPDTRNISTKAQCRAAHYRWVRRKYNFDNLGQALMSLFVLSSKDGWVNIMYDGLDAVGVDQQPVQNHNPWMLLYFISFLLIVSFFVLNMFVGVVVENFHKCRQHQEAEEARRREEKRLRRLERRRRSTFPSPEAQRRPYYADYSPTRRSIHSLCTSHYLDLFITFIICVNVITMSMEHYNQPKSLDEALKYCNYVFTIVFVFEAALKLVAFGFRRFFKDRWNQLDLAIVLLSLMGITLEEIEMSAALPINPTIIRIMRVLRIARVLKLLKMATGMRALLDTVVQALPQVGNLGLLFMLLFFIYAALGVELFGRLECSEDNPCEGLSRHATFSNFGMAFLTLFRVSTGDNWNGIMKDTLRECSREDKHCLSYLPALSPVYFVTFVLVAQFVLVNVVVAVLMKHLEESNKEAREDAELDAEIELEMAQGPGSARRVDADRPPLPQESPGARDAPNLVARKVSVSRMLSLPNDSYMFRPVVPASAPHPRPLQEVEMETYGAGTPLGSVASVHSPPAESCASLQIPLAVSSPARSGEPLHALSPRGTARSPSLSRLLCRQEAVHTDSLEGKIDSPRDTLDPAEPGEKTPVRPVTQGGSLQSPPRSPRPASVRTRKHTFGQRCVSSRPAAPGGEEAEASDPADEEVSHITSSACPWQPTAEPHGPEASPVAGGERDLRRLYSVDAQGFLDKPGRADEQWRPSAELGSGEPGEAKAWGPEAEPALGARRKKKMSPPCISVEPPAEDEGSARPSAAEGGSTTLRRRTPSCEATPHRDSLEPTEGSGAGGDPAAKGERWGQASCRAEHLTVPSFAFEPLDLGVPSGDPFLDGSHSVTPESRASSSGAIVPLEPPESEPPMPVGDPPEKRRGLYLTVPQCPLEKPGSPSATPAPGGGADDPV
Alkaline phosphatase, placental type, sequence (P05187 whole entry): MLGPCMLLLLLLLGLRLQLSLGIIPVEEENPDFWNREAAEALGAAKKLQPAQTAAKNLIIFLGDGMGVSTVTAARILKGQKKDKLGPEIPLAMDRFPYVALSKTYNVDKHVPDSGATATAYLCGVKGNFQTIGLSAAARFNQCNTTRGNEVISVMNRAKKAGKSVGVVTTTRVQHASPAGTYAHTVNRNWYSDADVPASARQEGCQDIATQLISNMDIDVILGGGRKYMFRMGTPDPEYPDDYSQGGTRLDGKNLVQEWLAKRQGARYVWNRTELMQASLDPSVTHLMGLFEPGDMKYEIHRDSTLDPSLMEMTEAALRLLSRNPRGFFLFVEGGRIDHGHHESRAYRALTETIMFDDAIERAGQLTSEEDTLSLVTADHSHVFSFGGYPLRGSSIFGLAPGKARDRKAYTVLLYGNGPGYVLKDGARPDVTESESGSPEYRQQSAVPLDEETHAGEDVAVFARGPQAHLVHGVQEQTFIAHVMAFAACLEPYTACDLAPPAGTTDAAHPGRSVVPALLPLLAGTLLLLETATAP
Photoreceptor-specific nuclear receptor, sequence (Q9Y5X4 whole entry): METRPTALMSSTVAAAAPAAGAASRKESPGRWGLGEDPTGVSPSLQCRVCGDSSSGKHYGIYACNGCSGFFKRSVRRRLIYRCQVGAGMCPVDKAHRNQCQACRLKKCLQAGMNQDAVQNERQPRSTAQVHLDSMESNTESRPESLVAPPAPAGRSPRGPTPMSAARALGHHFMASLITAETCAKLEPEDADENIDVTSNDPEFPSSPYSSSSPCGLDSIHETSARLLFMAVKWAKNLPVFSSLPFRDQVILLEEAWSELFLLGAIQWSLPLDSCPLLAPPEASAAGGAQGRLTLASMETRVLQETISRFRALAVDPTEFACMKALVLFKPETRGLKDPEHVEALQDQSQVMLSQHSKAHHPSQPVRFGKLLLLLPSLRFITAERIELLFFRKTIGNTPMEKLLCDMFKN
Aspartyl aminopeptidase, sequence (Q8I2J3 whole entry): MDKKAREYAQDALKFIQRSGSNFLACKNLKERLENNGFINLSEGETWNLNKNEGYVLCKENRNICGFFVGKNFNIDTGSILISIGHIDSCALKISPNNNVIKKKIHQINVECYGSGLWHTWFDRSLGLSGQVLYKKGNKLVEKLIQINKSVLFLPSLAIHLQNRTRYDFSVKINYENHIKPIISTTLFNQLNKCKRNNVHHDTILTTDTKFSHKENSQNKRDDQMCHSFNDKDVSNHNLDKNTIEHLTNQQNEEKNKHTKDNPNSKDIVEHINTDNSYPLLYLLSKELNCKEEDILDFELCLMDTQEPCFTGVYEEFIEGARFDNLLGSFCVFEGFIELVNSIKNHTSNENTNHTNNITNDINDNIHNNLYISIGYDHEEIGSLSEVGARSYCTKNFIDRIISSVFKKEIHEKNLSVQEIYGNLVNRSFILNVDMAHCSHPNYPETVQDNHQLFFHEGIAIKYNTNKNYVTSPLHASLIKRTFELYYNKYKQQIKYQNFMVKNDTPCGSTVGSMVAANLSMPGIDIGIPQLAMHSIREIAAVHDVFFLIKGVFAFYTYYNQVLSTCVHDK
Lysosomal acid glucosylceramidase, sequence (P04062 whole entry): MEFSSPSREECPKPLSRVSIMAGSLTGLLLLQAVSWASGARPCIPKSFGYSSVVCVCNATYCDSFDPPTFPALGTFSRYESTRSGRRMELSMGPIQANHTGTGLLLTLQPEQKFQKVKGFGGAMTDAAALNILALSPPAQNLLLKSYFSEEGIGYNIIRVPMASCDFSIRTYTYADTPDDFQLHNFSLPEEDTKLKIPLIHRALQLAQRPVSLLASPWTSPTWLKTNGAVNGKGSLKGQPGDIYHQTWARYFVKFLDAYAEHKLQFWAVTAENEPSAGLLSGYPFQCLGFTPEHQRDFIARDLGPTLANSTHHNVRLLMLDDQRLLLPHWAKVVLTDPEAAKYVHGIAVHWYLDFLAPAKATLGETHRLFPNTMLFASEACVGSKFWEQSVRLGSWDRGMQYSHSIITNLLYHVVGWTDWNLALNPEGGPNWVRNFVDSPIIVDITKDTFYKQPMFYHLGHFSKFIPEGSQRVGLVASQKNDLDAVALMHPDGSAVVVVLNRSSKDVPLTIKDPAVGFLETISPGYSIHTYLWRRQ

On to `CCOc1ccc(S(=O)(=O)NCC2CCCO2)c2cccnc12` (centres undefined), for which the EC50 in [1] is on record as > 10 µM (not active).
For `O=C(C1=C(O)C(=O)N(CCCN2CCOCC2)C1c1ccc(Cl)cc1)c1cc2ccccc2o1` (centres undefined), the values for the IC50 in experiment [2] and in [3] were > 39.8 µM (not active) and 5.14 µM (active), respectively.
For `COCCNC(=O)NC1(C(F)(F)F)Oc2ccc(Cl)cc2O1` (centres undefined), the AC50 in experiment [4] was 6.47 µM (active). For the same compound, the values for the IC50 (in [5]; against Procathepsin L; at Aspartyl aminopeptidase) were 6.75 µM (active), > 59.6 µM (not active) and 2.12 µM (active), respectively.
For `Nc1ccc(Cc2nc3cc4ccccc4cc3[nH]2)cc1`, in experiment [6], the CC50 is > 50 µM (active). Further, in “cells”, the IC50 was 15.1 µM (active).
With `CCCOc1cc(N(CC)CC)ccc1/C=C(/C#N)c1nc2cc(C)ccc2[nH]1`, the EC50 in experiment [7] was > 79.4 µM (not active); in experiment [8], 0.937 µM (active); in the experiment on Streptococcus it was > 150 µM (not active); in experiment [9] it was 1.19 µM (active); in experiment [10], > 79.4 µM (not active); in experiment [11] it was > 79.4 µM (not active). Also, the EC50 was 31.9 µM (active) on Streptokinase A, > 60 µM (not active) in [13] and 41.5 µM (active) in experiment [14]. The IC50 in [12] is 0.573 µM (active).
